Assay results as given in patent US6046238A, “Method for treating or preventing the spread of acne vulgaris” (TriStrata, Inc., priority 1999, dated 2000).
In brackets after ≈: the same amount, converted by molar mass. Entries after “also recorded” stand apart in the source; their conditions may differ. Where two headings read alike, the source gives them in different places.

What was measured:
Assay type in all cases: cell-based
Serratia marcescens = assay: MIC Agar Dilution Test, Serratia marcescens
From the text: (§1) The following strains of microorganisms were used in Minimum Inhibitory Concentration (MIC) tests for phenyl 2-acetoxyethanoic acid in this example and for benzoyl peroxide, chlorhexidine gluconate and triclosan in the following examples. In total, five strains were used for S. aureus, five strains were used for S. epidermidis, two strains were used for M. sedentarius, three strains were used for M. luteus, two strains were used for B. epidermis, three strains were used for C. minutissium, one strain was used for S. marcescens, three strains were used for P. aeruginosa, four strains were used for E. coli, and thirty-two strains were used for P. acnes.
(§2) Antimicrobial effects were determined based on MIC Agar Dilution Test utilizing Trypticase Soy Agar II (BBL) incorporation plates with and without 10% intralipid (Kabi Pharmacia Inc.). Initially, phenyl 2-acetoxyethanoic acid was prepared as a 2 mg/ml (0.2%) solution in water. This solution with serial dilution was incorporated into the test agar plates. The MIC test gave similar results when the same species but a different strain was used.
(§3) Under the same test conditions described in Example 1, benzoyl peroxide was prepared as a 2.5 mg/ml (0.25%) solution in water. This solution with serial dilution was incorporated into the test agar plates. Typical test results are shown as follows.
(§4) Under the same test conditions described in Example 1, chlorhexidine gluconate was prepared as a 2 mg/ml (0.2%) solution in water. This solution with serial dilution was incorporated into the test agar plates. Typical test results are shown as follows.
(§5) Under the same test conditions described in Example 1, triclosan was prepared as a 10 mg/ml (1%) solution in water. This solution with serial dilution was incorporated into the test agar plates. Typical test results are shown as follows.
(§6) Ten different species of bacteria were used in Minimum Inhibitory Concentration (MIC) tests. The bacteria include S. aureus, S. epidermidis,M. sedentarius, M. luteus, B. epidermis, C. minutissium, S. marcescens, P. aeruginosa, E. coli, and P. acnes. In addition various sources and strains of these bacteria were also included in the tests, and up to 32 different strains of P. acnes were used.
(§7) The test substance selected from phenyl 2-acetoxyethanoic acid, benzoyl peroxide, chlorhexidine gluconate and triclosan was dissolved in water, and the solution with serial dilution was incorporated into the test agar plates. The plates containing different concentrations of test substance were inoculated with a strain of bacterium. MIC is defined as the lowest concentration of the test substance in the plate in which there is no growth of the microorganism.

Propionibacterium acnes = assay: MIC Agar Dilution Test, Propionibacterium acnes; details: Cutibacterium acnes
From the text: as §1, §2, §3, §4, §5, §6, §7

[1] = system: Staphylococcus epidermidis; assay: MIC Agar Dilution Test, Staphylococcus epidermidis
From the text: as §1, §2, §3, §4, §5, §6, §7

Brevibacterium epidermis = assay: MIC Agar Dilution Test, Brevibacterium epidermis
From the text: as §1, §2, §3, §4, §5, §6, §7

Micrococcus sedentarius = assay: MIC Agar Dilution Test, Micrococcus sedentarius; details: Kytococcus sedentarius
From the text: as §1, §2, §3, §4, §5, §6, §7

[2] = system: ten different species of bacteria; assay: MIC Agar Dilution Test, panel of ten bacteria
From the text: as §1, §2, §3, §4, §5
In order to determine the antimicrobial effect of an aryl 2-acetoxyethanoicacid, a standard test method of Minimum Inhibitory Concentration (MIC) against the growth of 10 bacteria was used. To determine a prophylactic effect against the development of, as well as a topical effect in the treatment of, body foul door, eleven human subjects participated in this study. More than twenty human subjects participated in a study to determine whether the compositions containing an aryl 2-acetoxyethanoic acid were therapeutically effective for topical treatment of folliculitis and other skin lesions, nail infections and mucosal infections caused by microbial infections. Scientific and test results are overviewed as follows.
as §6, §7

Pseudomonas aeruginosa = assay: MIC Agar Dilution Test, Pseudomonas aeruginosa
From the text: as §1, §2, §3, §4, §5, §6, §7

Staphylococcus aureus = assay: MIC Agar Dilution Test, Staphylococcus aureus
From the text: as §1, §2, §3, §4, §5, §6, §7

Micrococcus luteus = assay: MIC Agar Dilution Test, Micrococcus luteus
From the text: as §1, §2, §3, §4, §5, §6, §7

[3] = system: Corynebacterium minutissium; assay: MIC Agar Dilution Test, Corynebacterium minutissium
From the text: as §1, §2, §3, §4, §5, §6, §7

Escherichia coli = assay: MIC Agar Dilution Test, Escherichia coli
From the text: as §1, §2, §3, §4, §5, §6, §7

[4] = S. marcescens, 10% intralipid, read-out: MIC Lipid
[5] = S. marcescens, no lipid, read-out: MIC No Lipid
[6] = P. acnes, 10% intralipid, read-out: MIC Lipid
[7] = P. acnes, no lipid, read-out: MIC No Lipid
[8] = S. epidermidis, 10% intralipid, read-out: MIC Lipid
[9] = S. epidermidis, no lipid, read-out: MIC No Lipid
[10] = B. epidermis, 10% intralipid, read-out: MIC Lipid
[11] = B. epidermis, no lipid, read-out: MIC No Lipid
[12] = M. sedentarius, 10% intralipid, read-out: MIC Lipid
[13] = M. sedentarius, no lipid, read-out: MIC No Lipid
[14] = in the absence of lipid materials, triclosan: excluding S. marcescens and P. aeruginosa
[15] = in the presence of 10% lipid materials, benzoyl peroxide: excluding S. marcescens and P. aeruginosa
[16] = P. aeruginosa, 10% intralipid, read-out: MIC Lipid
[17] = P. aeruginosa, no lipid, read-out: MIC No Lipid
[18] = S. aureus, 10% intralipid, read-out: MIC Lipid
[19] = S. aureus, no lipid, read-out: MIC No Lipid
[20] = M. luteus, 10% intralipid, read-out: MIC Lipid
[21] = M. luteus, no lipid, read-out: MIC No Lipid
[22] = C. minutissium, 10% intralipid, read-out: MIC Lipid
[23] = C. minutissium, no lipid, read-out: MIC No Lipid
[24] = E. coli, 10% intralipid, read-out: MIC Lipid
[25] = E. coli, no lipid, read-out: MIC No Lipid

O=C(OOC(=O)c1ccccc1)c1ccccc1 [benzoyl peroxide]
MIC (Serratia marcescens; [4]): 1250 µg/mL (≈ 5.16 mM) | MIC (Serratia marcescens; [5]): 72500 µg/mL (≈ 299 mM) | MIC (Propionibacterium acnes; [6]): 625 µg/mL (≈ 2.58 mM) | MIC (Propionibacterium acnes; [7]): 2500 µg/mL (≈ 10.3 mM) | MIC (Propionibacterium acnes; in the presence of 10% lipid materials, read-out: concentration effective against P. acnes): 625 µg/mL | MIC [1, 8]: 1250 µg/mL (≈ 5.16 mM) | MIC [1, 9]: 2500 µg/mL (≈ 10.3 mM) | MIC (Brevibacterium epidermis; [10]): 1250 µg/mL (≈ 5.16 mM) | MIC (Brevibacterium epidermis; [11]): 2500 µg/mL (≈ 10.3 mM) | MIC (Micrococcus sedentarius; [12]): 650 µg/mL (≈ 2.68 mM) | MIC (Micrococcus sedentarius; [13]): 2500 µg/mL (≈ 10.3 mM) | MIC (Micrococcus sedentarius; in the presence of 10% lipid materials, read-out: concentration showing inhibitory effects against M. sedentarius): 625 µg/mL | effect against the growth of the bacteria [2, 14]: not effective against the growth of all the bacteria tested | effect against the growth of the bacteria [2, 15]: moderately effective | MIC (Pseudomonas aeruginosa; [16]): 1250 µg/mL (≈ 5.16 mM) | MIC (Pseudomonas aeruginosa; [17]): 72500 µg/mL (≈ 299 mM) | MIC (Staphylococcus aureus; [18]): 1250 µg/mL (≈ 5.16 mM) | MIC (Staphylococcus aureus; [19]): 2500 µg/mL (≈ 10.3 mM) | MIC (Micrococcus luteus; [20]): 650 µg/mL (≈ 2.68 mM) | MIC (Micrococcus luteus; [21]): 2500 µg/mL (≈ 10.3 mM) | MIC (Micrococcus luteus; in the presence of 10% lipid materials (printed M. lutens), read-out: concentration showing inhibitory effects against M. luteus): 625 µg/mL | MIC [3, 22]: 1250 µg/mL (≈ 5.16 mM) | MIC [3, 23]: 2500 µg/mL (≈ 10.3 mM) | MIC (Escherichia coli; [24]): 1250 µg/mL (≈ 5.16 mM) | MIC (Escherichia coli; [25]): 2500 µg/mL (≈ 10.3 mM)

Oc1cc(Cl)ccc1Oc1ccc(Cl)cc1Cl [triclosan]
MIC (Serratia marcescens; read-out: MIC Lipid): > 10000 µg/mL | MIC (Serratia marcescens; read-out: MIC No Lipid): > 10000 µg/mL | MIC (Propionibacterium acnes; read-out: MIC Lipid): > 10000 µg/mL | MIC (Propionibacterium acnes; read-out: MIC No Lipid): 156 µg/mL (≈ 0.539 mM) | MIC ([1]; read-out: MIC Lipid): 5000 µg/mL (≈ 17.3 mM) | MIC ([1]; read-out: MIC No Lipid): 156 µg/mL (≈ 0.539 mM) | MIC (Brevibacterium epidermis; read-out: MIC Lipid): > 10000 µg/mL | MIC (Brevibacterium epidermis; read-out: MIC No Lipid): 156 µg/mL (≈ 0.539 mM) | MIC (Micrococcus sedentarius; read-out: MIC Lipid): > 10000 µg/mL | MIC (Micrococcus sedentarius; read-out: MIC No Lipid): 156 µg/mL (≈ 0.539 mM) | effect against the growth of the bacteria [2, 14]: effective against various bacteria | effect against the growth of the bacteria [2, 15]: ineffective; also recorded: not effective against the growth of all the bacteria tested; also recorded: ineffective against most microorganisms | MIC ([2]; read-out: concentration found effective against the bacteria tested): 156 µg/mL (≈ 0.539 mM) | MIC (Pseudomonas aeruginosa; read-out: MIC Lipid): > 10000 µg/mL | MIC (Pseudomonas aeruginosa; read-out: MIC No Lipid): > 10000 µg/mL | MIC (Staphylococcus aureus; read-out: MIC Lipid): > 10000 µg/mL | MIC (Staphylococcus aureus; read-out: MIC No Lipid): 156 µg/mL (≈ 0.539 mM) | MIC (Micrococcus luteus; read-out: MIC Lipid): > 10000 µg/mL | MIC (Micrococcus luteus; read-out: MIC No Lipid): 156 µg/mL (≈ 0.539 mM) | MIC ([3]; read-out: MIC Lipid): > 10000 µg/mL | MIC ([3]; read-out: MIC No Lipid): 156 µg/mL (≈ 0.539 mM) | MIC (Escherichia coli; read-out: MIC Lipid): > 10000 µg/mL | MIC (Escherichia coli; read-out: MIC No Lipid): 156 µg/mL (≈ 0.539 mM)

N=C(NCCCCCCNC(=N)NC(=N)Nc1ccc(Cl)cc1)NC(=N)Nc1ccc(Cl)cc1 [chlorhexidine gluconate]
MIC (Serratia marcescens; [4]): > 2000 µg/mL | MIC (Serratia marcescens; [5]): 1000 µg/mL | MIC (Propionibacterium acnes; [6]): > 2000 µg/mL | MIC (Propionibacterium acnes; [7]): 62.5 µg/mL | MIC [1, 8]: > 2000 µg/mL | MIC [1, 9]: 125 µg/mL | MIC (Brevibacterium epidermis; [10]): > 2000 µg/mL | MIC (Brevibacterium epidermis; [11]): 250 µg/mL | MIC (Micrococcus sedentarius; [12]): > 2000 µg/mL | MIC (Micrococcus sedentarius; [13]): 125 µg/mL | effect against the growth of the bacteria [2, 14]: effective against various bacteria | effect against the growth of the bacteria [2, 15]: totally ineffective; also recorded: not effective against the growth of all the bacteria tested; also recorded: ineffective against most microorganisms | MIC (Pseudomonas aeruginosa; [16]): > 2000 µg/mL | MIC (Pseudomonas aeruginosa; [17]): 1000 µg/mL | MIC (Staphylococcus aureus; [18]): > 2000 µg/mL | MIC (Staphylococcus aureus; [19]): 125 µg/mL | MIC (Micrococcus luteus; [20]): > 2000 µg/mL | MIC (Micrococcus luteus; [21]): 125 µg/mL | MIC [3, 22]: > 2000 µg/mL | MIC [3, 23]: 125 µg/mL | MIC (Escherichia coli; [24]): > 2000 µg/mL | MIC (Escherichia coli; [25]): 250 µg/mL
